# Read-outs that look alike come from different tables or passages of the source.
# Tests used:
# [1] = Aqueous solubility (pH 7) by modified shake flask method and RP-HPLC; format: physicochemical
# Procedure: In one of our drugs discovering projects toward antitumor therapeutics, a series of novel FLT3 inhibitors were designed and synthesized using the structure-based drug design methods. The aqueous solubilities (pH = 7) of these compounds were measured using the modified shake flask method and RP-HPLC ([34], [35]). Each compound was added into a 1.5 mL Eppendorf tube containing Milli-Q water (1 mL) to form the precipitates at 25°C. Then the mixture was subjected to a solubility-equilibrium stage. The tube was shook at 300 rpm at 25°C for 24 h. The precipitate was separated by centrifugation at 23,000 g for 20 min. Subsequently, 0.25 mL of supernatant was transferred into a 1 mL Eppendorf tube, and it was centrifuged again with the same settings used above. The supernatant was then used for HPLC analysis. An Agilent 1260 Infinity LC system (Agilent Technologies, Inc., Santa Clara, California) was used. For HPLC conditions, a ZORBAX SB-C18 column (5 μM, 4.6 × 150 mm; Agilent), a flow rate of 0.8 mL/min for mobile phase, a UV wavelength of 250 nm and a column temperature of 30°C were used. The sample was injected automatically by a mechanical arm and separated by a constant mixture of methanol/PBS (pH 5.6), 90:10. For each compound, a standard curve consisting of four concentrations was established. The synthetic methods of all but compound SC5 and SC6 have been published in literatures ([36]–[39]). The synthetic methods of SC5 and SC6 are described in Supplementary Method 1.
# [2] = cited from earlier work; for LogS_exp: experimental aqueous solubility: literature S values converted to mol/L and transformed into logS; for Experimental S value: room-temperature, around pH 7.0
# [3] = Milli-Q water, pH 7, 25°C, 24 h shaking, RP-HPLC, read-out: Experimental S value
# [4] = method NA, ref Hamdy et al., 2017
# [5] = by HPLC, ref Thompson et al., 2018
smiles,measurement,setting,value
Cc1nc2c(c(-c3nc(Nc4c[nH]nc4C(=O)Nc4ccc(N5CCNCC5)cc4)c4ccsc4n3)n1)CCCC2 [SC4],Experimental S value,"[1]; Milli-Q water, pH 7, 25°C, 24 h shaking, RP-HPLC",0.10491 mg/mL
same,solubility thermodynamic at 24 h,[1]; [3],105 µg/mL
COc1ccc(Oc2ccc3c(NC(=O)c4ccc(NC5CCN(C)CC5)cc4)n[nH]c3c2)cc1 [SC5],Experimental S value,"[1]; 24 h, pH 7",0.019714 mg/mL
same,solubility thermodynamic at 24 h,"[1]; pH 7, water",19.7 µg/mL
same,melting point,,236 to 238 °C
COC1=C/C(=N/NC(=O)c2ccncc2)C[C@@H](C)[C@]12Oc1c(Cl)c(OC)cc(OC)c1C2=O (relative stereo) [NC4],LogS_exp: experimental aqueous solubility,[2],-4.576 logarithmic units of mol/L
same,Experimental S value,[2]; [4],12.53 µg/mL
N#CCC(=O)c1cc(C#N)cs1 [SC1],solubility thermodynamic at 24 h,[1]; [3],30.7 µg/mL
CN1CCC(Nc2ccc(C(=O)Nc3n[nH]c4cc(Oc5ccccc5)ccc34)cc2)CC1 [SC6],solubility thermodynamic at 24 h,"[1]; pH 7, water",< 10 µg/mL
O=C(Nc1ccccc1OC(F)(F)F)N[C@@H]1COc2nc([N+](=O)[O-])cn2C1 [NC3],Experimental S value,[2]; [5],22 µg/mL
same,LogS_exp: experimental aqueous solubility,[2],-4.246 logarithmic units of mol/L
N#Cc1csc(-c2cc(N)[nH]n2)c1 [SC2],solubility thermodynamic at 24 h,"[1]; pH 7, water",31.7 µg/mL
COc1cc(OC)c2c(c1Cl)O[C@]1(C2=O)C(OCc2ccccc2)=C/C(=N\OCC(=O)O)C[C@H]1C (relative stereo) [NC5],LogS_exp: experimental aqueous solubility,[2],-4.254 logarithmic units of mol/L
same,Experimental S value,[2]; [4],27.94 µg/mL
O=[N+]([O-])c1cn2c(n1)OC[C@H](Oc1ccc(C(F)(F)F)cn1)C2 [NC7],Experimental S value,[2]; [5],110 µg/mL
O=C(/C=C(/C=C/c1cccnc1)NCCO)/C=C/c1cccnc1 [NC6],Experimental S value,"[2]; by shake flask method and colorimetry, ref Theppawong et al., 2018",4350.8 µM
same,LogS_exp: experimental aqueous solubility,[2],-2.361 logarithmic units of mol/L
Cc1nc(Nc2c[nH]nc2C(=O)Nc2ccc(CN3CCOCC3)cc2)c2cc(C(C)C)sc2n1 [SC3],solubility thermodynamic at 24 h,[1]; [3],60.7 µg/mL
CN(Cc1ccc(C(F)(F)F)cc1)c1cc(C(=O)Nc2ncn(C)n2)ncn1 [NC2],LogS_exp: experimental aqueous solubility,[2],-3.762 logarithmic units of mol/L
same,Experimental S value,"[2]; method NA, ref Wilson et al., 2017",173 µM
